# PubChem BioAssay (NCI)
#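 All cell lines were grown in 96-well plates and treated with compound for 48 hours. The concentration for full growth arrest is given as TGI.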
# Legend:
# Assay in all cases: DTP human tumour cell line panel, 48 h
# 786-0 renal = system: 786-0 renal
# A498 renal = system: A498 renal
# A549 NSCLC = system: A549 NSCLC
# ACHN renal = system: ACHN renal
# BT-549 breast = system: BT-549 breast
# CAKI-1 renal = system: CAKI-1 renal
# CCRF-CEM leukemia = system: CCRF-CEM leukemia
# COLO 205 colon = system: COLO 205 colon
# DU-145 prostate = system: DU-145 prostate
# EKVX NSCLC = system: EKVX NSCLC
# HCC-2998 colon = system: HCC-2998 colon
# HCT-116 colon = system: HCT-116 colon
# HCT-15 colon = system: HCT-15 colon
# HOP-62 NSCLC = system: HOP-62 NSCLC
# HOP-92 NSCLC = system: HOP-92 NSCLC
# HS 578T breast = system: HS 578T breast
# HT29 colon = system: HT29 colon
# IGROV1 ovarian = system: IGROV1 ovarian
# K-562 leukemia = system: K-562 leukemia
# KM12 colon = system: KM12 colon
# LOX IMVI melanoma = system: LOX IMVI melanoma
# M14 melanoma = system: M14 melanoma
# MALME-3M melanoma = system: MALME-3M melanoma
# MCF7 breast = system: MCF7 breast
# MDA-MB-231 breast = system: MDA-MB-231 breast
# MDA-MB-435 = system: MDA-MB-435
# MDA-N = system: MDA-N
# MOLT-4 leukemia = system: MOLT-4 leukemia
# NCI-H226 lung = system: NCI-H226 lung
# NCI-H23 lung = system: NCI-H23 lung
# NCI-H460 lung = system: NCI-H460 lung
# NCI-H522 lung = system: NCI-H522 lung
# NCI/ADR-RES ovarian = system: NCI/ADR-RES ovarian
# OVCAR-3 ovarian = system: OVCAR-3 ovarian
# OVCAR-4 ovarian = system: OVCAR-4 ovarian
# OVCAR-5 ovarian = system: OVCAR-5 ovarian
# OVCAR-8 ovarian = system: OVCAR-8 ovarian
# PC-3 prostate = system: PC-3 prostate
# RPMI-8226 leukemia = system: RPMI-8226 leukemia
# RXF 393 renal = system: RXF 393 renal
# SF-268 CNS = system: SF-268 CNS
# SF-295 CNS = system: SF-295 CNS
# SK-MEL-2 melanoma = system: SK-MEL-2 melanoma
# SK-MEL-28 melanoma = system: SK-MEL-28 melanoma
# SK-MEL-5 melanoma = system: SK-MEL-5 melanoma
# SK-OV-3 ovarian = system: SK-OV-3 ovarian
# SN12C renal = system: SN12C renal
# SNB-19 CNS = system: SNB-19 CNS
# SNB-75 CNS = system: SNB-75 CNS
# SW-620 colon = system: SW-620 colon
# T-47D breast = system: T-47D breast
# TK-10 renal = system: TK-10 renal
# U251 CNS = system: U251 CNS
# UACC-257 melanoma = system: UACC-257 melanoma
# UACC-62 melanoma = system: UACC-62 melanoma
# UO-31 renal = system: UO-31 renal
smiles,measurement,setting,value
CC(Cc1ccccc1)Nc1ncnc2c1ncn2C1OC(CO)CC1O (stereo unspecified),TGI,786-0 renal,> 100 µM
same,TGI,A498 renal,> 100 µM
same,TGI,A549 NSCLC,> 100 µM
same,TGI,ACHN renal,> 100 µM
same,TGI,BT-549 breast,> 100 µM
same,TGI,CAKI-1 renal,> 100 µM
same,TGI,CCRF-CEM leukemia,> 100 µM
same,TGI,COLO 205 colon,> 100 µM
same,TGI,DU-145 prostate,> 100 µM
same,TGI,EKVX NSCLC,> 100 µM
same,TGI,HCC-2998 colon,> 100 µM
same,TGI,HCT-116 colon,> 100 µM
same,TGI,HCT-15 colon,> 100 µM
same,TGI,HOP-62 NSCLC,> 100 µM
same,TGI,HOP-92 NSCLC,> 100 µM
same,TGI,HS 578T breast,> 100 µM
same,TGI,HT29 colon,> 100 µM
same,TGI,IGROV1 ovarian,> 100 µM
same,TGI,K-562 leukemia,> 100 µM
same,TGI,KM12 colon,> 100 µM
same,TGI,LOX IMVI melanoma,> 100 µM
same,TGI,M14 melanoma,> 100 µM
same,TGI,MALME-3M melanoma,> 100 µM
same,TGI,MCF7 breast,> 100 µM
same,TGI,MDA-MB-231 breast,> 100 µM
same,TGI,MDA-MB-435,> 100 µM
same,TGI,MDA-N,> 100 µM
same,TGI,MOLT-4 leukemia,> 100 µM
same,TGI,NCI-H226 lung,> 100 µM
same,TGI,NCI-H23 lung,> 100 µM
same,TGI,NCI-H460 lung,> 100 µM
same,TGI,NCI-H522 lung,> 100 µM
same,TGI,NCI/ADR-RES ovarian,> 100 µM
same,TGI,OVCAR-3 ovarian,> 100 µM
same,TGI,OVCAR-4 ovarian,> 100 µM
same,TGI,OVCAR-5 ovarian,> 100 µM
same,TGI,OVCAR-8 ovarian,> 100 µM
same,TGI,PC-3 prostate,> 100 µM
same,TGI,RPMI-8226 leukemia,> 100 µM
same,TGI,RXF 393 renal,> 100 µM
same,TGI,SF-268 CNS,> 100 µM
same,TGI,SF-295 CNS,6.21 µM
same,TGI,SK-MEL-2 melanoma,> 100 µM
same,TGI,SK-MEL-28 melanoma,> 100 µM
same,TGI,SK-MEL-5 melanoma,> 100 µM
same,TGI,SK-OV-3 ovarian,13.7 µM
same,TGI,SN12C renal,> 100 µM
same,TGI,SNB-19 CNS,> 100 µM
same,TGI,SNB-75 CNS,> 100 µM
same,TGI,SW-620 colon,> 100 µM
same,TGI,T-47D breast,> 100 µM
same,TGI,TK-10 renal,> 100 µM
same,TGI,U251 CNS,> 100 µM
same,TGI,UACC-257 melanoma,> 100 µM
same,TGI,UACC-62 melanoma,> 100 µM
same,TGI,UO-31 renal,> 100 µM
